Reference: US20150203561A1, “BETA THYMOSIN FRAGMENTS” (REGENERX BIOPHARMACEUTICALS, INC., priority 2008, published 2015)

How the values were obtained:
neuron survival = experiment: Promotion of neuron survival (summary table); set-up: key: P = active; U = useful; conditions: summary of peptide uses
human dermal fibroblasts [1] = experiment: Collagen secretion, colorimetric assay; type: cell-based; set-up: key to Stimulates collagens / Inhibits collagens: P = active; U = useful; conditions: for Inhibits collagens / Stimulates collagens: summary of peptide uses
Experimental: (§1) Effect of Tb4 and peptides on collagen secretion • Human dermal fibroblasts (Fb) were cultured to 80% confluence • Cells were treated with 1 μg/ml Tb4 or peptides for 24, 48, or 72 hours. Cells were treated once/day. • Culture supernatants (n=3, experiments repeated 5 times) were assayed for collagen secretion using a colorimetric assay that detects collagen types I, II, III, IV and V, and possibly VII

[2] = tested on: tissue damage caused by UV radiation; experiment: UV radiation tissue damage (summary table); set-up: key: P = active; U = useful; conditions: summary of peptide uses
L1 = experiment: Stimulation of L1 production (summary table); set-up: key: P = active; U = useful; conditions: summary of peptide uses
neurite outgrowth = experiment: Promotion of neurite outgrowth (summary table); set-up: key: P = active; U = useful; conditions: summary of peptide uses
[3] = tested on: Transformed human corneal epithelial cells (HCET); experiment: Collagen type IV secretion ELISA; type: cell-based; set-up: key to Stimulates collagen IV: P = active; U = useful; conditions: for Collagen type IV secretion: corneal epithelial cells, 1 μg/ml, 24 hours; for Stimulates collagen IV: summary of peptide uses
Experimental: Effect of Tb4 and peptides on collagen type IV secretion • Transformed human corneal epithelial cells (HCET) were cultured to 80% confluence • Cells were treated with 1 μg/ml Tb4 or peptides for 24 hours • Culture supernatant samples (n=3 per experiment, total of 4 experiments) were analyzed using a collagen type IV ELISA • Data was analyzed using the t-test

human dermal fibroblasts [4] = experiment: LDH cytotoxicity assay in human dermal fibroblasts exposed to cytotoxic agents; type: cell-based; set-up: key to Protects from cytotoxicity: P = active; U = useful; conditions: for Protects from cytotoxicity: summary of peptide uses
Experimental: Dose Response Analysis of Peptide 3A • Human dermal fibroblasts (Fb, Cascade Biologics, OR) were cultured to 80% confluence • 2 ml CHX (0.002%) in basal medium ±1 μg/ml Tb4 or 1.0, 0.1, 0.01, or 0.001 μg/ml peptide 3A was added to Fb for 1, 2, 3, or 4 hours • 100 μl culture medium (n=4) was added to 100 μl LDH reagent and incubated at room temperature for 20 minutes • OD500 nm was read and averages ±SEM were calculated • Data was analyzed with probability of p≦0.05

cell migration = experiment: Stimulation of migration (summary table); type: cell-based; set-up: key: P = active; U = useful; conditions: summary of peptide uses
human dermal fibroblasts [5] = experiment: Elastin secretion, colorimetric assay; type: cell-based; set-up: key to Stimulates Elastin: P = active; U = useful; conditions: for Secretion of elastin: dermal Fb, 1 μg/ml once/day, 24, 48, or 72 hours; for Stimulates Elastin: summary of peptide uses
Experimental: as §1, with “elastin” for “collagen”, “6” for “5”, “• Data was analyzed using the t-test” for “that detects collagen types I, II, III, IV and V, and possibly VII”

IKKb = target: T1, IKKb (Homo sapiens, UniProt O14920); experiment: Cell-free IkBa phosphorylation ELISA (NFkB signaling pathway); type: biochemical; set-up: key to Inhibits IkBa phosphorylation: P = active; U = useful
T1 sequence (O14920 1-756): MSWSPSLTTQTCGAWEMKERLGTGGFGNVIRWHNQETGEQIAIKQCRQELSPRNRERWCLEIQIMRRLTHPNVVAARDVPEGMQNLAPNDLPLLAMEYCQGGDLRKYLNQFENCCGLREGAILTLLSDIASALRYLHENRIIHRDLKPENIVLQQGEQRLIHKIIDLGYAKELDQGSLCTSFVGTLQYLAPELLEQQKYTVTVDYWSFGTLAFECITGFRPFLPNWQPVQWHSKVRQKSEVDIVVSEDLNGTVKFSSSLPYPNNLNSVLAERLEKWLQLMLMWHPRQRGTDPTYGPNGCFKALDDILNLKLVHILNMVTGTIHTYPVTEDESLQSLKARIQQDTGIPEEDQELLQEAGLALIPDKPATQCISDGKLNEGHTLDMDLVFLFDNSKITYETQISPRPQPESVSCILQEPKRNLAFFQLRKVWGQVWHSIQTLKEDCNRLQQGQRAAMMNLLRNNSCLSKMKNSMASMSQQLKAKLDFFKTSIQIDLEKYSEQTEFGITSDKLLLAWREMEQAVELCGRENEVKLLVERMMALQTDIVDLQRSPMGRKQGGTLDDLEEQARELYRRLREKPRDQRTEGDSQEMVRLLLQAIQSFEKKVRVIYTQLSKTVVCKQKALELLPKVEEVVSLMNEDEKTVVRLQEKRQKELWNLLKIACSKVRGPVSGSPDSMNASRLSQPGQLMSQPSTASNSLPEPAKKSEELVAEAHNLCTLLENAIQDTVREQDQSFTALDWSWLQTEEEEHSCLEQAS
Experimental: Effect of Tb4 and peptides on the NFkB signaling pathway • Cell-free assay • Prepared 1.0, 0.1, and 0.01 ng/ml solutions of Tb4 or peptides in kinase buffer supplied with kit • Added 10 μl of the solutions to wells of a 96-well plate coated with lkBa • IKKb (20 mU) was added to wells • 90 μl kinase reaction buffer (containing ATP) was added to the wells • ELISA to detect phosphorylated lkBa

[6] = tested on: p65 subunit of NFkB in human corneal epithelial cells; experiment: NFkB nuclear translocation; type: cell-based; set-up: key: P = active; U = useful; conditions: summary of peptide uses
Experimental: Analysis of NFkB Nuclear Translocation • Human corneal epithelial cells were cultured to 80% confluence • Cells were pre-treated with 1 μg/ml Tb4 or peptide 4A or 6A for one hour • Cells were stimulated with 10 ng/ml TNF-a in the presence or absence of Tb4 or peptides for 15 minutes • Cells were fixed and labeled with antibodies to the p65 subunit of NFkB

human dermal Fb = experiment: CHX-induced apoptosis (APOPercentage dye) in human dermal Fb; type: cell-based; set-up: key to Inhibits apoptosis: P = active; U = useful; conditions: summary of peptide uses
Experimental: Effect of Tb4 and Peptide 3A on CHX-induced apoptosis • Human dermal Fb were cultured to 80% confluence • Fb were treated with 0.002% CHX+1 μg/ml Tb4 or peptide 3A, 4A or 6A for 1.5 hours • APOPercentage “dye” was added to the Fb cultures at a 1:50 dilution for an additional 30 minutes • Excess dye was washed from the cells, and digital images were captured. Cells dyed red were apoptotic • Adobe Photoshop was used to calculate the number of red pixels in six digitized images for each treatment • Statistical analysis was done using the t-test

[7] = tested on: TNF-a-stimulated IL8 secretion; experiment: Suppression of inflammation (summary table; IL-8 secretion); type: cell-based, human; set-up: key: P = active; U = useful; conditions: summary of peptide uses
Experimental: Analysis of IL-8 Secretion • Human corneal epithelial cells or dermal Fb were cultured to 80% confluence • Cells were pre-treated with 1 μg/ml Tb4 or peptides for one hour • Cells were stimulated with 10 ng/ml TNF-a in the presence or absence of Tb4 or peptides • Culture medium was analyzed for secreted IL-8 by ELISA (n=3, experiments repeated twice) • Data was analyzed using the t-test

Substance | Promotes neuron survival (neuron survival) | Inhibits collagens (human dermal fibroblasts [1]) | Inhibits tissue damage caused by UV radiation [2] | Protects tissue from UV radiation damage [2] | Stimulates L1 production (L1) | Promotes neurite outgrowth (neurite outgrowth) | Collagen type IV secretion [3] | Stimulates collagen IV [3] | Protection of Fb against the cytotoxic effects of CHX (LDH) (human dermal fibroblasts [4]; 1 μg/ml, 0.002% CHX, 2 hour exposure) | Protects from cytotoxicity (human dermal fibroblasts [4]) | Stimulates Migration (cell migration) | Secretion of elastin (human dermal fibroblasts [5]) | Stimulates Elastin (human dermal fibroblasts [5]) | Stimulation of secretion of collagens (human dermal fibroblasts [1]; human dermal fibroblasts, 1 μg/ml once/day, after 3 days of treatment) | Stimulates collagens (human dermal fibroblasts [1]) | Inhibition of IkBa phosphorylation (NFkB signaling pathway) (IKKb; cell-free, 1.0, 0.1, and 0.01 ng/ml) | Inhibits IkBa phosphorylation (IKKb; summary of peptide uses) | Inhibits NFkB translocation [6] | Inhibits apoptosis (human dermal Fb) | Suppresses inflammation [7]
H-Met-Ala-Glu-Ile-Glu-Lys-Phe-Asp-Lys-Ser-OH (H-MAEIEKFDKS-OH) [Peptide 7A] | U | P | U | U | U | U | – | – | – | – | – | – | – | – | – | – | – | – | – | –
H-Ser-Asp-Lys-Pro-OH (H-SDKP-OH) [Peptide 2A] | U | P | U | U | U | U | stimulate | P | – | – | – | – | – | – | – | – | – | – | – | –
Ac-SDKPDMAEIEKFDKS-OH [Peptide 3B] | U | P | U | U | U | U | – | – | protect | P | – | – | – | – | – | – | – | – | – | –
H-Glu-Lys-Asn-Pro-Leu-Pro-Ser-Lys-Glu-Thr-OH (H-EKNPLPSKET-OH) [Peptide 5A] | U | – | U | U | U | U | – | – | – | – | P | – | – | – | – | – | – | – | – | –
Ac-Leu-Lys-Lys-Thr-Glu-Thr-Gln-OH (Ac-LKKTETQ-OH) [Peptide 4B] | U | – | U | U | U | U | – | – | – | – | P | stimulate | P | – | – | – | – | – | – | –
Ac-Glu-Lys-Asn-Pro-Leu-Pro-Ser-Lys-Glu-Thr-OH (Ac-EKNPLPSKET-OH) [Peptide 5B] | U | – | U | U | U | U | – | – | – | – | – | – | – | stimulates | P | – | – | – | – | –
Ac-Ile-Glu-Gln-Glu-Lys-Gln-Ala-Gly-Glu-Ser-OH (Ac-IEQEKQAGES-OH) [Peptide 6B] | U | P | U | U | U | U | – | – | – | – | – | – | – | – | – | may have an effect | P | – | – | –
Ac-Met-Ala-Glu-Ile-Glu-Lys-Phe-Asp-Lys-Ser-OH (Ac-MAEIEKFDKS-OH) [Peptide 7B] | U | U | U | U | U | U | – | – | – | – | – | stimulate | U | – | – | – | – | – | – | –
H-Leu-Lys-Lys-Thr-Glu-Thr-Gln-OH (H-LKKTETQ-OH) [Peptide 4A] | U | – | U | U | U | U | stimulate | P | – | – | – | stimulates | P | – | – | – | – | P | – | –
Ac-SDKPDMAEIEKFDKSKLKKTET-OH [Fragment Ab] | U | U | U | U | U | U | – | – | – | U | U | – | U | – | U | – | – | – | U | U
Ac-SDKPDMAEIEKFDKSKLKKTETQ-OH [Fragment Bb] | U | U | U | U | U | U | – | – | – | U | U | – | U | – | U | – | – | – | U | U
Ac-Leu-Lys-Lys-Thr-Glu-Thr-OH (Ac-LKKTET-OH) [Peptide 1B] | U | P | U | U | U | U | – | – | – | – | – | – | – | – | – | – | – | – | – | –
H-Ile-Glu-Gln-Glu-Lys-Gln-Ala-Gly-Glu-Ser-OH (H-IEQEKQAGES-OH) [Peptide 6A] | U | P | U | U | U | U | – | – | – | – | – | – | – | – | – | – | – | – | – | –
